Assay in all cases: KINOMEscan
One test concerns the target T1, IRAK1 (Homo sapiens, UniProt P51617).
T1 construct: purchased Eurofins DiscoverX KINOMEscan
It is filed as binding. The note with it: read-out: % control activity remaining.

A further test has as its target T2, GSK3B (Homo sapiens, UniProt P49841).
T2 construct: purchased Eurofins DiscoverX KINOMEscan
It counts as binding. The note with it: read-out: % control activity remaining.

Another test has as its target T3, MUSK (Homo sapiens, UniProt O15146).
T3 construct: purchased Eurofins DiscoverX KINOMEscan
T3 sequence (O15146 24-869): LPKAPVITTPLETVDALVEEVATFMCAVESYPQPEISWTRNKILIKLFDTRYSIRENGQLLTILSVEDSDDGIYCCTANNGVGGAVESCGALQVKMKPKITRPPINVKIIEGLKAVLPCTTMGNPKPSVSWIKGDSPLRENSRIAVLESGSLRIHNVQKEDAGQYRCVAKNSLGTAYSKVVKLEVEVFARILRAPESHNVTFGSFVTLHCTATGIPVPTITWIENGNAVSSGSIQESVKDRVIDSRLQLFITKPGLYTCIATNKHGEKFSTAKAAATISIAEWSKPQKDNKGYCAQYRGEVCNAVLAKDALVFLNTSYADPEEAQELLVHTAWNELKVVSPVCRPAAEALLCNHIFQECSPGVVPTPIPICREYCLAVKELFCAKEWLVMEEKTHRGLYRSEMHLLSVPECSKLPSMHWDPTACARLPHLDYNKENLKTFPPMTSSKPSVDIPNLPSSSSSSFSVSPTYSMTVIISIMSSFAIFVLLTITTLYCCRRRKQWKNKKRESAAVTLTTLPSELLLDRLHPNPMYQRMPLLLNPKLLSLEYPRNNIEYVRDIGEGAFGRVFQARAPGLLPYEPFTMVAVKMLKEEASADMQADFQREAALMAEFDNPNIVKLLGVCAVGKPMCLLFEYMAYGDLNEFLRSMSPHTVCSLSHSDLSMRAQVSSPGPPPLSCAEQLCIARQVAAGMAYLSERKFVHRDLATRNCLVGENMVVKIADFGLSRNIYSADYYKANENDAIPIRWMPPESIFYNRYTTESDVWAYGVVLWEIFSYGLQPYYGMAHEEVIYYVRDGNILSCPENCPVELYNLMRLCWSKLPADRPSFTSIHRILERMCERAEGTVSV
It counts as binding. The settings on record: read-out: % control activity remaining.

A further test has as its target T4, LRRK2 (Homo sapiens, UniProt Q5S007).
T4 construct: purchased Eurofins DiscoverX KINOMEscan
It is filed as binding. The settings on record: read-out: % control activity remaining.

In the next test the target is T5, NDR2 (Homo sapiens, UniProt Q9Y2H1).
T5 construct: purchased Eurofins DiscoverX KINOMEscan
It is filed as binding. The note with it: read-out: % control activity remaining.

Another test concerns the target T6, MAP4K4 (Homo sapiens, UniProt O95819).
T6 construct: purchased Eurofins DiscoverX KINOMEscan
It is filed as binding. The settings on record: read-out: % control activity remaining.

A further test deals with T7, BMPR1A (Homo sapiens, UniProt P36894).
T7 construct: purchased Eurofins DiscoverX KINOMEscan
It is filed as binding. The note with it: read-out: % control activity remaining.

Another test deals with T8, ITK (Homo sapiens, UniProt Q08881).
T8 construct: purchased Eurofins DiscoverX KINOMEscan
T8 sequence (Q08881 1-620): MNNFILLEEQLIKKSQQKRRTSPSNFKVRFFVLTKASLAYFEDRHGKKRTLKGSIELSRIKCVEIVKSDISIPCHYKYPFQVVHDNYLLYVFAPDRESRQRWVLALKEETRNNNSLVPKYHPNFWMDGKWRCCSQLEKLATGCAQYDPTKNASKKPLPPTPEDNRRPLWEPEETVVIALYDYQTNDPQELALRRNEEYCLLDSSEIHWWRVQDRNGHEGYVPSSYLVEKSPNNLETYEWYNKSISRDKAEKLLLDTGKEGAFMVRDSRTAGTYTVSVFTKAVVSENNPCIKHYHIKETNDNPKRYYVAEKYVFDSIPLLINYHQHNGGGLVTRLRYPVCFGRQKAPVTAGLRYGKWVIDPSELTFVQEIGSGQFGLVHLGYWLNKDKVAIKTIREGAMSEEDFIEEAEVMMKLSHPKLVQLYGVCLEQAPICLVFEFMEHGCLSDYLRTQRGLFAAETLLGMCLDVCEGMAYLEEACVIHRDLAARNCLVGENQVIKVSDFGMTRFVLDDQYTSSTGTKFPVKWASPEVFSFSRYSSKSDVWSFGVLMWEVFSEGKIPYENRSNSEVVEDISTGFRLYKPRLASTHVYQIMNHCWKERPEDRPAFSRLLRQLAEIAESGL
It is filed as binding. The settings on record: read-out: % control activity remaining.

A further test addresses T9, FLT3(N841I) (Homo sapiens, UniProt P36888, N841I).
T9 construct: purchased Eurofins DiscoverX KINOMEscan
T9 sequence (P36888 27-993 N841I): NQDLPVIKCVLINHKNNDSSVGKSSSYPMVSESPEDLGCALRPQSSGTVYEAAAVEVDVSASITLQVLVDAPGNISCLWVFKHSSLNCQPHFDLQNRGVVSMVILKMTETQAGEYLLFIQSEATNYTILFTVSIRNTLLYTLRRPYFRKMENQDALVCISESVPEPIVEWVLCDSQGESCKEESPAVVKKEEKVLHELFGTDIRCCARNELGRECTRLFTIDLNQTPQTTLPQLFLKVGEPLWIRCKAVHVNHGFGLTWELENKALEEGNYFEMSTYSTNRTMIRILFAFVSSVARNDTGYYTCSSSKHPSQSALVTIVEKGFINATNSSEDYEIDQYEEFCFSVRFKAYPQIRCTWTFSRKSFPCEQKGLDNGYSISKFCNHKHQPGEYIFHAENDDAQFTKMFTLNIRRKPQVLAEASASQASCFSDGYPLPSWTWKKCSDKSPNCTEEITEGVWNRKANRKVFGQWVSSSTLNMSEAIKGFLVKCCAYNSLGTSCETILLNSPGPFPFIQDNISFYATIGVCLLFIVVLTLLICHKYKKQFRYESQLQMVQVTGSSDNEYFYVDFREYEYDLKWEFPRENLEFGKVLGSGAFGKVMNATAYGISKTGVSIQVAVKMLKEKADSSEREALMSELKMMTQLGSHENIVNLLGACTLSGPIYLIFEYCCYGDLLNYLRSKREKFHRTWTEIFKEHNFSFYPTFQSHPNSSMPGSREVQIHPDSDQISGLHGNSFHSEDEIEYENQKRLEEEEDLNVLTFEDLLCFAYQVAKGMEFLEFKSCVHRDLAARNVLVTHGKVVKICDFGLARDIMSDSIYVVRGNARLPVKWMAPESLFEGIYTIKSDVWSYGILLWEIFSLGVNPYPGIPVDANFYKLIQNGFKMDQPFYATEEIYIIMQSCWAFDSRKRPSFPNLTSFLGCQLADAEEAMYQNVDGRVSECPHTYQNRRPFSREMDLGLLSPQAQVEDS
It counts as binding. The settings on record: read-out: % control activity remaining.

The target in another test is T10, TRKB (Homo sapiens, UniProt Q16620).
T10 construct: purchased Eurofins DiscoverX KINOMEscan
It is filed as binding. The note with it: read-out: % control activity remaining.

The next test deals with FLT3(ITD). It is filed as binding, human. The settings on record: 1000 nM.
The next test has as its target T11, EGFR(T790M) (Homo sapiens, UniProt P00533, T790M).
T11 construct: purchased Eurofins DiscoverX KINOMEscan
It is filed as binding. The settings on record: read-out: % control activity remaining.

T1 sequence (P51617 whole entry): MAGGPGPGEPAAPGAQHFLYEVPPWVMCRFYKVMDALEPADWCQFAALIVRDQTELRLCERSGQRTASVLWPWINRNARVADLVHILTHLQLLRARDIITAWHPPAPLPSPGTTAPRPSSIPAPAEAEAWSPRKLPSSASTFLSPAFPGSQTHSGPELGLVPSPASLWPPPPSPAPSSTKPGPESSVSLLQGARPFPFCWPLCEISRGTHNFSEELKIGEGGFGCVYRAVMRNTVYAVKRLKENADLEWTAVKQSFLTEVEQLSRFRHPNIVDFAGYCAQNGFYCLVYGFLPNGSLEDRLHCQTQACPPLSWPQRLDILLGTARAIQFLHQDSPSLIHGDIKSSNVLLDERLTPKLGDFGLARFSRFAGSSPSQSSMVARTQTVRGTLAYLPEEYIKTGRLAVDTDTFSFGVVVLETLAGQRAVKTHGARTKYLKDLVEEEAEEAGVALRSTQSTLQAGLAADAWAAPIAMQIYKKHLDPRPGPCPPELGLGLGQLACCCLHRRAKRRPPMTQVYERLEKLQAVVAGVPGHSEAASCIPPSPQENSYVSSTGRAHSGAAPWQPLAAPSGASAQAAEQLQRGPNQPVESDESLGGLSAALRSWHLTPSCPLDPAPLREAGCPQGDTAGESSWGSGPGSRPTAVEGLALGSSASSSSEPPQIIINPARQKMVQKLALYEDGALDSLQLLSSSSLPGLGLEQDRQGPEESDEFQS
T10 sequence (Q16620 32-822): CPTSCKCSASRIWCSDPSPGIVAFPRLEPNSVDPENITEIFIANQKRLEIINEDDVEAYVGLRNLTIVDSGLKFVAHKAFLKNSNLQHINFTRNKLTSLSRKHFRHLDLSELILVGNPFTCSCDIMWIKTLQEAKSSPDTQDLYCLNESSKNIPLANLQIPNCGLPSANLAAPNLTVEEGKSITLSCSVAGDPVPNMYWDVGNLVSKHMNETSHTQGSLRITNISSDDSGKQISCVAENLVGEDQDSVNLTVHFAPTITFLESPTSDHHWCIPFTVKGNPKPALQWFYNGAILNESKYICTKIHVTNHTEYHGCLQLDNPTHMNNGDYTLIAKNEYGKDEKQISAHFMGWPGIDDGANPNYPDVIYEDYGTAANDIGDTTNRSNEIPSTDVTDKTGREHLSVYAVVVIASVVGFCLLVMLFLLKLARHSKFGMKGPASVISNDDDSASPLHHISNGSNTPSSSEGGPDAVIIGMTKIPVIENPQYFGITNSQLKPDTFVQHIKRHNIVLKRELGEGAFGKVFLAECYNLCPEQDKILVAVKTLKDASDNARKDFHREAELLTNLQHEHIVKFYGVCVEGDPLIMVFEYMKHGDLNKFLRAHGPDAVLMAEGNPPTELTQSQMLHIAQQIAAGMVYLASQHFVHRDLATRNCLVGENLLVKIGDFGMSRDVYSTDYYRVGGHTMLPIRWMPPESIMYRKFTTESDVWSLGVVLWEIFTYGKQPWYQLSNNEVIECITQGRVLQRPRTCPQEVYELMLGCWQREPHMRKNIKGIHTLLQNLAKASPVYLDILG
T11 sequence (P00533 25-1210 T790M limits assumed): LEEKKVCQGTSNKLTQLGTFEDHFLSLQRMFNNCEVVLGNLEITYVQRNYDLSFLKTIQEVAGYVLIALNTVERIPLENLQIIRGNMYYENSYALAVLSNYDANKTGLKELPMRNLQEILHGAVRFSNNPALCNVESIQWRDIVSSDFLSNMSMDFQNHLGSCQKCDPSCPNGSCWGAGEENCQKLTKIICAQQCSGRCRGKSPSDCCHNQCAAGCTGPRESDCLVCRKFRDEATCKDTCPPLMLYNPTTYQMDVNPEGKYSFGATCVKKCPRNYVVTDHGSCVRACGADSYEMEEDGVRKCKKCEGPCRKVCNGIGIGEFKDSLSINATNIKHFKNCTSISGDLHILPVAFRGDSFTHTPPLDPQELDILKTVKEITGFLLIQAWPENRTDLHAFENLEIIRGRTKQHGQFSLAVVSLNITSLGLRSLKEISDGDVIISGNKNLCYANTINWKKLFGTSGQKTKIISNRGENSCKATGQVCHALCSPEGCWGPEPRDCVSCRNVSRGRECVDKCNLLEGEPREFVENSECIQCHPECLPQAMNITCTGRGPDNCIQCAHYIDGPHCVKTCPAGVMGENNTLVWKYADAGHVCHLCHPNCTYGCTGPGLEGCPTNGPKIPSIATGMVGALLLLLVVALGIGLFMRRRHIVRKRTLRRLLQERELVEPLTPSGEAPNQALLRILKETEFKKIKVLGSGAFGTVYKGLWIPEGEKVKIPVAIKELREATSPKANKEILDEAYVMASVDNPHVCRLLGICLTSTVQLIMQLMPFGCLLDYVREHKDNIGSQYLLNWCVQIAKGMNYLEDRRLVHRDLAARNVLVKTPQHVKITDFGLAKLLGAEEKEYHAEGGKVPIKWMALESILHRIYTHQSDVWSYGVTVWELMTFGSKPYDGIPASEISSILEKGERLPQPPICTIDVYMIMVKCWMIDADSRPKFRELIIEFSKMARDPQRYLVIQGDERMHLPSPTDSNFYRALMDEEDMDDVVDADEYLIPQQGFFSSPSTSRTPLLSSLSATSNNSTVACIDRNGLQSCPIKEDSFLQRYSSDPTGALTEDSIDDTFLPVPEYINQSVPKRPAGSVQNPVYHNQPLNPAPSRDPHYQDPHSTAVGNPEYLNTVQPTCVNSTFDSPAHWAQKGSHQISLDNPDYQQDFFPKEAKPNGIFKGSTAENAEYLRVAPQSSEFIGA
T7 sequence (P36894 24-532): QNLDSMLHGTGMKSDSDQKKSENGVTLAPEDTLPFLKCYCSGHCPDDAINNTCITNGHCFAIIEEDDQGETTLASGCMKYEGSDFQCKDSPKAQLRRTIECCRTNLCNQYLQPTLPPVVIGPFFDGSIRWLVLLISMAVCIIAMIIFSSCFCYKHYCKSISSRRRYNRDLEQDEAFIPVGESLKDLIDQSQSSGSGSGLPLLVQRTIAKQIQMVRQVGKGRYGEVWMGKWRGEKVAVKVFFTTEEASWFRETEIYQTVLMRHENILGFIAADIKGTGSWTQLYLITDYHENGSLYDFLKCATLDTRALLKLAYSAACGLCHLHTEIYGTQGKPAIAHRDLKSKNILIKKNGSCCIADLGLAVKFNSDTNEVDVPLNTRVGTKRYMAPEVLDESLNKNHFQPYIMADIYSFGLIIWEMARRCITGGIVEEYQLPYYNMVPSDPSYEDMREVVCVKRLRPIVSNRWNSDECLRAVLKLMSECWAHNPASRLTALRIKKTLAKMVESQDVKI
T6 sequence (O95819 whole entry): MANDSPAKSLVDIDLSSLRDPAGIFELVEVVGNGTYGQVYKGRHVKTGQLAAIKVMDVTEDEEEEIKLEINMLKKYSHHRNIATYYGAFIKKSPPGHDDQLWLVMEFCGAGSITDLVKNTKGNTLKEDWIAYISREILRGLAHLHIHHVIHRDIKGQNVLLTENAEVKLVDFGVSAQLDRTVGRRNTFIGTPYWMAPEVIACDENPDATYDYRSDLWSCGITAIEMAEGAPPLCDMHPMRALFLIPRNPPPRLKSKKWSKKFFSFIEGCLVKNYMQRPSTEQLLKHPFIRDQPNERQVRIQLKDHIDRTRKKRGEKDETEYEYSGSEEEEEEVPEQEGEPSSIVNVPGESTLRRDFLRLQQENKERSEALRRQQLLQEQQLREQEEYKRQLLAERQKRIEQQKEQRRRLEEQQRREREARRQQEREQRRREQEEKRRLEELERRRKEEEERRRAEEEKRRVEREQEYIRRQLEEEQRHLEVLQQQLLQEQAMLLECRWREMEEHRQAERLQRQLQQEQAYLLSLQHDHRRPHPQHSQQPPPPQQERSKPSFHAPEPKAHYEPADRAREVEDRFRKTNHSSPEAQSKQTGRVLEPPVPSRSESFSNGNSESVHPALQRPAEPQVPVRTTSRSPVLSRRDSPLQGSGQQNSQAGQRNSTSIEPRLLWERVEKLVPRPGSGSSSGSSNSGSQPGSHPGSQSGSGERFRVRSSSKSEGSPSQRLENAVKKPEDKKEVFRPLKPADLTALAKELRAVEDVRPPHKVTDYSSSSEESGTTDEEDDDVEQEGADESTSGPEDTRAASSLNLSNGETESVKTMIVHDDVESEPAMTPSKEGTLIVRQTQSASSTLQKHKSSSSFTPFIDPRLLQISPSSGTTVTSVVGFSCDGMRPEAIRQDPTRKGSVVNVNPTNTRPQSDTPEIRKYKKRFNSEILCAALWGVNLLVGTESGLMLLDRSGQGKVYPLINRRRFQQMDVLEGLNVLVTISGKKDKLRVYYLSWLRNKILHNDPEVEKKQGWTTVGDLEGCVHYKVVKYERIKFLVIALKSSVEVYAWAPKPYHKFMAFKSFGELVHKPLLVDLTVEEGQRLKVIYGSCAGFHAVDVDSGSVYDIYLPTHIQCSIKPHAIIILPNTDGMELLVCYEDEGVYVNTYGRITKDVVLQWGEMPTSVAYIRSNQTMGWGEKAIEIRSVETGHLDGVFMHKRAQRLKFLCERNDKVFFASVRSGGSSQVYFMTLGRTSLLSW
T5 sequence (Q9Y2H1 whole entry): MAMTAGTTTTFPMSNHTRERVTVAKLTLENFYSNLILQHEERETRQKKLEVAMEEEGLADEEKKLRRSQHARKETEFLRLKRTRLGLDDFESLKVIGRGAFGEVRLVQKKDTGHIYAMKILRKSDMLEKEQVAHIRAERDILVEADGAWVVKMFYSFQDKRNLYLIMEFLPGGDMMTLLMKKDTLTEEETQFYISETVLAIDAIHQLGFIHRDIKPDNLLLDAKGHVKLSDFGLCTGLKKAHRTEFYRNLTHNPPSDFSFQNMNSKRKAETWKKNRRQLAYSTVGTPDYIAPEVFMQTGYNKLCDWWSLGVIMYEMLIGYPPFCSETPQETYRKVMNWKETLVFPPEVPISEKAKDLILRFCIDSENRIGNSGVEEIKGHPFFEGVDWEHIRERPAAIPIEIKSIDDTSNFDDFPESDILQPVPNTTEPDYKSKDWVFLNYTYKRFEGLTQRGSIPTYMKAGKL

With `Clc1cc(NCC2CC2)c2ncc(-c3ccc4[nH]ncc4c3)n2n1` [compound 2, 6-Chloro-N-(cyclopropylmethyl)-3-(1H-indazol-5-yl)imidazo[1,2-b]pyridazin-8-amine], the remaining binding at 1 µM on IRAK1 is 95%; on GSK3B, 99%; at MUSK, 72%; on LRRK2, 94%; on NDR2 it was 94%; at MAP4K4, 92%. Further, the remaining binding at 1 µM on BMPR1A stood at 95%; on ITK it was 92%; on FLT3(N841I) it was 7.5%; on TRKB, 89%; on EGFR(T790M) it was 92%. The “% control activity remaining” value with FLT3(ITD) stood at 5.6%.
With `O=C(CN1CCOCC1)N[C@H]1CC[C@H](Nc2cc(Cl)nn3c(-c4ccc5[nH]ncc5c4)cnc23)CC1` [compound 26], the remaining binding at 1 µM amounted to 45% at IRAK1; 92% on GSK3B; 42% at MUSK; 90% on LRRK2; 94% on NDR2; 75% at MAP4K4. Moreover, the remaining binding at 1 µM on BMPR1A came out at 86%; on ITK, 84%; at FLT3(N841I) it was 0%; on TRKB it was 69%; at EGFR(T790M) it was 100%. For the same molecule, in the test on FLT3(ITD), the “% control activity remaining” value is given as 0.25%.
Take `CN1CCC(CNc2cc(Cl)nn3c(-c4cc5nc(Nc6ccccc6)[nH]c5cc4F)cnc23)CC1` [compound 31, 6-Chloro-3-(6-fluoro-2-(phenylamino)-1H-benzo[d]imidazol-5-yl)-N-((1-methylpiperidin-4-yl)methyl)imidazo[1,2-b]pyridazin-8-amine]: the remaining binding at 1 µM is 89% at IRAK1; 96% at GSK3B; 40% at MUSK; 100% on LRRK2; 100% on NDR2; 100% at MAP4K4. Besides, the remaining binding at 1 µM on BMPR1A is 100%; at ITK it was 91%; at FLT3(N841I) it was 96%; at TRKB it was 91%; on EGFR(T790M), 100%. The “% control activity remaining” value with FLT3(ITD) is given as 91%.
